Measured values from paper PMC6627331, “Identification of Small Molecule Inhibitors of Staphylococcus aureus RnpA” (Antibiotics, 2019).
Converted amounts (≈) assume the structure as drawn. Where two headings read alike, the source gives them in different places.

What was measured:
[1] = biological target: T1, S. aureus RNase P (RnpA + rnpB) (Staphylococcus aureus, UniProt P0A0H5); assay: RnpA-dependent RNase P in vitro ptRNA^Tyr processing assay; assay type: biochemical; details: in vitro ptRNA^Tyr processing
T1 construct: hexahistidine (His6) (N); made in house; host or cells: E. coli BL21 (DE3), plasmid pEXP5-nt
T1 sequence (P0A0H5 1-117): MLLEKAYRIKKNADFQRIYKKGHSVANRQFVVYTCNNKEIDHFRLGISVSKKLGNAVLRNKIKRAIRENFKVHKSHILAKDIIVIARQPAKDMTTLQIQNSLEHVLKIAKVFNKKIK
Method: S. aureus RNase P activity assays were performed according to conditions described previously. Briefly, ptRNA^Tyr and rnpB RNA species were first denatured by heating to 95 °C for 5 min then slow cooled to room temperature. RNase P was reconstituted by mixing an equal molar ratio of rnpB and RnpA for 15 min at 37 °C. Precursor tRNA processing inhibition reactions were performed by mixing 1.25 pmol of reconstituted RNase P (RnpA + rnpB) with an equal volume of 2× low salt buffer (50 mM Tris-HCl pH 8.0, 5 mM MgCl2) in the presence of DMSO (negative control) or the indicated compound (≤500 µM) and incubated for 5 min at 37 °C. 5 pmol ptRNA^Tyr was added and the mixture was incubated at 37 °C 15 min. Reactions were stopped by adding 2× RNA loading dye and heating at 65 °C for 10 min. Each sample was electrophoresed in a 7 M urea/8% polyacrylamide gel then stained with ethidium bromide. The Biorad EZ Gel Doc imaging system was used to visualize the RNA and relative abundance of the mature tRNA^Tyr band (% processing) in the negative control or in samples containing the indicated compounds and analyzed using Biorad Image Lab densitometry software. The inhibitory activity of the indicated compounds were calculated as a % inhibition using the following equation: […].
To assess IC50, % RNase P processing inhibition was plotted against compound concentration and a linear best fit equation was generated to calculate the IC50.

S. aureus RnpA = biological target: T2, S. aureus RnpA (Staphylococcus aureus, UniProt P0A0H5); assay: RnpA-mediated in vitro spa mRNA degradation assay; assay type: biochemical
T2 construct: hexahistidine (His6) (N); made in house; host or cells: E. coli BL21 (DE3), plasmid pEXP5-nt
T2 sequence (P0A0H5 1-117): T1 sequence (P0A0H5 1-117)
Method: RnpA-mediated RNA degradation assays were performed as previously described. Briefly, 1 pmol of spa mRNA was incubated with 5 pmol RnpA at 37 °C for 30 min in reaction buffer (50 mM Tris-HCl pH 8.0, 2 mM NaCl, 2 mM MgCl2) in the absence or presence of the indicated compound (≤500 µM). The inhibitory effects of the test compounds were calculated using Biorad ImageLab densitometry software to measure the signal intensity of the spa band in the negative control (spa alone), positive control (RnpA + spa + DMSO), and experimental samples (RnpA + spa + test compound) separated on a 1.2% formaldehyde-agarose gel. Background signal from the positive control sample sometimes resulted due to incomplete degradation of transcripts. Thus, the signal intensity of the positive control was taken into account when calculating the percent inhibition. The raw signals from the positive (+RnpA) and negative (-RnpA) controls were converted into percentage, by normalizing the positive control (+RnpA) signal to 0% RnpA inhibition and the negative control (-RnpA) to 100% RnpA inhibition. Similarly, the raw signals from the test compounds were reported as percent RnpA inhibition using the following equation: [(experimental−positive control)/(negative control−positive control)] × 100. […] To assess IC50, % RnpA degradation inhibition was plotted against compound concentration; a linear best fit equation was generated and utilized to calculate the IC50.

S. aureus UAMS-1 [2] = assay: Minimum inhibitory concentration (MIC) testing; assay type: cell-based, Staphylococcus aureus
Method: Minimum inhibitory concentration (MIC) testing was performed using to Clinical & Laboratory Standards Institute (CLSI) guidelines. Accordingly, individual wells of a 96-well microtiter plate were inoculated with 10^4 colony forming units (CFU) of S. aureus UAMS-1 containing two-fold increasing concentrations (0 to 256 μg·mL^−1) of the indicated antibiotic or putative RnpA inhibitor compound, and incubated at 37 °C for 16 h in MHB. The MIC was defined as the lowest concentration of compound in which there was no visible bacterial growth in the well.

HepG2 cells = assay: MTT human cell cytotoxicity testing; assay type: cell-based; details: SAR figures; 4× MIC exposure for 24 h
Method: Human HepG2 hepatocytes were seeded in individual wells of a 96-well cell-culture treated microtiter plate at a concentration of 1 × 10^5 cells per well and incubated in Dulbecco’s Modified Eagle Medium (DMEM) supplemented with 10% fetal bovine serum at 37 °C with 5% carbon dioxide overnight. Cells were then treated with DMSO (negative control) or the indicated agent for 24 h. MTT Cell Proliferation Assay Kits were used to assess viability according to the manufacturer’s recommendations (American Type Culture Collection; Manassas, VA, USA).

[3] = tested on: norA mRNA in S. aureus UAMS-1 cells; assay: Cellular norA mRNA turnover (qRT-PCR after rifampin arrest); assay type: cell-based, Staphylococcus aureus; details: 0.5× MIC for 30 min, 5 min post-transcriptional arrest; for norA mRNA degradation: mock 99%
Method: S. aureus mRNA half-life determinations were performed as previously described. […] Rifampin (Sigma-Aldrich) was added to the culture at a final concentration of 200 μg·mL^−1 to inhibit de novo transcript synthesis. Half of the culture was immediately removed and combined with an equal volume of ice cold acetone:ethanol (1:1 v/v). The remaining culture was returned to the shaking 37 °C incubator for an additional 5 min and then subsequently combined with an equal volume of ice cold acetone:ethanol (1:1 v/v) and stored at −80 °C until processing, as described below.
For total bacterial RNA isolation, cell suspensions were thawed on ice, centrifuged at 3000 rpm for 10 min at 4 °C, the resulting cell pellets were resuspended in ice-cold TE buffer (10 mM Tris-HCl, pH 8.0, 1 mM EDTA), and transferred into a FastPrep bead beater tube containing 0.1 mm silica spheres (MP Biomedicals; Santa Ana, CA, USA). Mixtures were homogenized at 5 m·s^−1 for 20 s, rested on ice for 5 min, and then homogenized again at 4.5 m·s^−1 in a FastPrep-24 instrument. Cellular debris were collected by centrifugation at 13,000 rpm for 15 min at 4 °C, whereas bacterial RNA was isolated from the supernatant using Qiagen RNeasy Mini Kits and miRNeasy Mini Kits were used to isolate total bacterial RNA, following the manufacturer’s instructions. RNA quantity and quality were measured using a NanoDrop 2000 spectrophotometer (ThermoFisher Scientific). For qRT-PCR, 1 μg of total bacterial RNA was treated with 3 units of DNase I (Ambion; Carlsbad, CA, USA) for 1 h at 37 °C to remove any DNA contaminants. RNA cleanup was performed using the Qiagen RNeasy Mini Kit. Subsequently, the BioRad iScript cDNA Synthesis Kit (Hercules, CA, USA) was used to convert 200 ng of RNA into cDNA, which was amplified using the BioRad iQ SYBR Green Supermix per the manufacturer’s instructions and fluorescence was read on the Biorad CFX 96 Connect machine. Transcript levels were compared to the internal control 16S rRNA (ΔΔCt method), and plotted as a fold change compared to control. The following primer pairs were used in this study for qRT-PCR: norA forward—[…] and norA reverse-[…] CTAAG; -15 ptRNA^Tyr forward-[…] and tRNA^Tyr reverse-TGGTG […]; 16S rRNA forward-[…] and 16S rRNA reverse-[…].

[4] = tested on: ptRNA^Tyr levels in S. aureus UAMS-1 cells; assay: Cellular ptRNA^Tyr accumulation (qRT-PCR); assay type: cell-based, Staphylococcus aureus; details: 1× MIC; 30 min or 1 h
Method: ptRNA^Tyr cellular pools were measured, as previously described. […] The culture was immediately removed, combined with an equal volume of ice cold acetone:ethanol (1:1 v/v) and stored at −80 °C until processing, as described below.
For total bacterial RNA isolation, cell suspensions were thawed on ice, centrifuged at 3000 rpm for 10 min at 4 °C, the resulting cell pellets were resuspended in ice-cold TE buffer (10 mM Tris-HCl, pH 8.0, 1 mM EDTA), and transferred into a FastPrep bead beater tube containing 0.1 mm silica spheres (MP Biomedicals; Santa Ana, CA, USA). Mixtures were homogenized at 5 m·s^−1 for 20 s, rested on ice for 5 min, and then homogenized again at 4.5 m·s^−1 in a FastPrep-24 instrument. Cellular debris were collected by centrifugation at 13,000 rpm for 15 min at 4 °C, whereas bacterial RNA was isolated from the supernatant using Qiagen RNeasy Mini Kits and miRNeasy Mini Kits were used to isolate total bacterial RNA, following the manufacturer’s instructions. RNA quantity and quality were measured using a NanoDrop 2000 spectrophotometer (ThermoFisher Scientific). […] Subsequently, the BioRad iScript cDNA Synthesis Kit (Hercules, CA, USA) was used to convert 200 ng of RNA into cDNA, which was amplified using the BioRad iQ SYBR Green Supermix per the manufacturer’s instructions and fluorescence was read on the Biorad CFX 96 Connect machine. […]

[5] = tested on: S. aureus RN4220 pML100::rnpA-KD; assay: Cellular RnpA depletion hypersusceptibility growth curve; assay type: cell-based, Staphylococcus aureus; details: […] MIC JC2 or 0.5× MIC RNPA2000
Method: 100 μL of each culture was transferred to a 96 well flat bottom plate in duplicate and growth monitored by OD600 reading every 30 min over 8 h at 37 °C. Hypersusceptibility growth curves were averaged from two biological replicates in technical duplicate.

S. aureus UAMS-1 [6] = assay: Galleria mellonella model of S. aureus infection; assay type: in vivo; details: 10^4 CFU UAMS-1, single dose 100 mg·kg^−1 1 h post-infection, 16 h; DMSO 60%
Method: (§1) An overnight culture of S. aureus strain UAMS-1 was used to inoculate (1:100 dilution) 25 mL of fresh MH medium and growth at 37 °C on a rotary shaker at 225 rpm to exponential phase (~1 × 10^8 CFU mL^−1). Cultures were pelleted by centrifugation, washed with phosphate buffered saline (PBS), and re-suspended at ~1 × 10^7 CFU·mL^−1 in fresh PBS. G. mellonella larvae weighing 150–250 mg were inoculated with 5 µL of S. aureus into the last left proleg using a 10 µL Hamilton syringe. About 1 h after inoculation, one group of worms was treated with 2 µL DMSO as infected negative control; one group was treated with 2 µL JC2 compound at 100 mg/kg dose; another group was treated with 2 µL vancomycin at 100 mg/kg dose as standard-of-care comparison. Treatments were administered in the same manner as infection, except that each injection was in the next left proleg moving towards the head of the worm. […] In addition to the mock or compound treatment of infected larvae, a group of non-infected worm injected with DMSO or corresponding compounds were used to monitor the impact of physical trauma as well as observe toxicity associated with compound treatment.

Galleria mellonella = Galleria mellonella single tolerated dose (uninfected worms); assay type: in vivo; details: single dose 100 mg·kg^−1, 16 h
Method: as §1

[7] = Staphylococcus aureus, UAMS1, 16 h, Table S1, mupirocin synergy screening initial hits, read-out: MIC
[8] = Staphylococcus aureus, UAMS1, SAR figures, S. aureus UAMS-1, read-out: MIC

SMILES	IC50 ([1]; read-out: Processing IC50) [µM]	IC50 (S. aureus RnpA; read-out: Degradation IC50) [µM]	MIC (S. aureus UAMS-1 [2]; [7]) [µg/mL]	MIC (S. aureus UAMS-1 [2]; [8]) [µg/mL]	MTT = % HepG2 cell survival (HepG2 cells) [%]	norA mRNA degradation [3]	also measured
CC1CCN(C(=O)Nc2cc(Cl)cc(Cl)c2)CC1 [JC1]	210	110	1	1 (≈ 3.48 µM)	63	did not reduce cellular norA mRNA degradation	MIC (S. aureus UAMS-1 [2]; S. aureus UAMS-1, 16 h in MHB, listed as 9044791): 1 µg/mL (≈ 3.48 µM)
CCC1CCCCN1C(=O)Nc1cc(Cl)cc(Cl)c1 (stereo not shown) [JC3]	175	500	1	1 (≈ 3.32 µM)	57.9	did not reduce cellular norA mRNA degradation	effect on RnpA mRNA degradation activity (in words) (S. aureus RnpA): no appreciable effect; MIC (S. aureus UAMS-1 [2]; S. aureus UAMS-1, 16 h in MHB, listed as 9044688): 1 µg/mL (≈ 3.32 µM)
CCC1CCCCN1C(=O)Nc1cccc(Cl)c1 (stereo not shown) [JC3b]	≤ 500	≤ 500	–	32 (≈ 120 µM)	82.8	did not reduce cellular norA mRNA degradation	IC50 ([1]; SAR figures, read-out: pIC50 = processing IC50 (converted)): 500 µM; IC50 (S. aureus RnpA; SAR figures, read-out: dIC50 = degradation IC50): 350 µM
CC(C)c1ccc(OCC(=O)NNC(=S)NC(=O)c2ccco2)cc1 [RNPA2000, reference compound]	–	–	–	–	–	–	MIC (S. aureus UAMS-1 [2]; S. aureus UAMS-1, 16 h in MHB): 16 µg/mL (≈ 44.3 µM); cellular accumulation of precursor tRNA^Tyr in comparison to mock treated cells [4]: 2.31 fold; reduction of cellular norA mRNA degradation [3]: approximately 54%; growth of RnpA-depleted cells (RnpA-KD) versus vector cells [5]: hypersusceptibility
CN[C@H](CC(C)C)C(=O)N[C@H]1C(=O)N[C@@H](CC(N)=O)C(=O)N[C@H]2C(=O)N[C@H]3C(=O)N[C@H](C(=O)N[C@H](C(=O)O)c4cc(O)cc(O)c4-c4cc3ccc4O)[C@H](O)c3ccc(c(Cl)c3)Oc3cc2cc(c3O[C@@H]2O[C@H](CO)[C@@H](O)[C@H](O)[C@H]2O[C@H]2C[C@](C)(N)[C@H](O)[C@H](C)O2)Oc2ccc(cc2Cl)[C@H]1O [vancomycin, reference compound]	–	–	–	–	–	–	mortality rate of S. aureus infected worms (S. aureus UAMS-1 [6]): 40%; mortality rate of uninfected worms (Galleria mellonella): 10%
